US7605170B2, “8-azabicyclo[3.2.1]octane derivatives” (N.V. Organon, priority 2005, dated 2009)

Columns and labels:
Format in all cases: cell-based
[1] = target: T1, human dopamine transporter (hDAT) (Homo sapiens, UniProt Q01959); test: Assay of monoamine uptake: inhibition of dopamine uptake; conditions: Chinese Hamster Ovary cells expressing hDAT; 20 nM [3H]-neurotransmitter mixture; ambient temperature; read-out: hDAT pEC50 (inhibition of dopamine uptake) (converted)
T1 construct: expressed in transfected cells
T1 sequence (Q01959 whole entry): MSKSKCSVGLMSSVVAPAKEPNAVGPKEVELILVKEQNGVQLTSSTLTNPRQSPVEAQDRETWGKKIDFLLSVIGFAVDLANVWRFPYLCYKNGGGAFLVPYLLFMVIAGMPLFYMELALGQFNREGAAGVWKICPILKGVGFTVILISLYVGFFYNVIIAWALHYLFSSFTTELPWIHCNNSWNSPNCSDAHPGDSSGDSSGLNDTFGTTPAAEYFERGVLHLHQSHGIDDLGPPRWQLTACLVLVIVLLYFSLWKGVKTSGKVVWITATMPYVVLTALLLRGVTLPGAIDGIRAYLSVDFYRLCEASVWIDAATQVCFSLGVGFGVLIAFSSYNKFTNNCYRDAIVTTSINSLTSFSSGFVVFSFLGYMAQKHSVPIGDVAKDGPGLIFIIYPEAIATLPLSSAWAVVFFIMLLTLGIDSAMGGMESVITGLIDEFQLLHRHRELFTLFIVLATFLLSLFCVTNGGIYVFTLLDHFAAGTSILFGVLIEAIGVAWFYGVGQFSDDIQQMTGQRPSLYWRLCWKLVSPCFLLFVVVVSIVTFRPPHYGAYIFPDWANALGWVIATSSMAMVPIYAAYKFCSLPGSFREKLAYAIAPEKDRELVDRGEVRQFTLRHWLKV
Experimental: (§1) The in vitro test for the inhibition of dopamine and serotonin uptake was performed in Chinese Hamster Ovary cells expressing the human dopamine transporter (hDAT) or the human serotonin transporter (hSERT). The in vitro test for the inhibition of noradrenaline uptake was performed in Madin Darby Canine Kidney Cells (MDCK) expressing the human noradrenaline transporter (hNET). Briefly, cell lines stably overexpressing the appropriate human transporter were propagated and plated according to standard cell culture techniques. Following plating, cells were left to adhere for either one or two days. A 6-point serial dilution (normally 1E-5M to 1E-10M) of test and reference compounds was prepared, added to the washed cells and incubated for 5 minutes at ambient temperature for dopamine or serotonin transporter overexpressing and 37° C. for noradrenaline overexpressing cells. Next, a final concentration of 20 nM of appropriate neurotransmitter (mixture of [^3H]-neurotransmitter and non-labelled neurtoransmitter) was added and the cells were incubated for three or five minutes at ambient temperature for dopamine or serotonin transporter overexpressing cells or ten minutes at 37° C. for noradrenaline overexpressing cells. Following termination of the assay, Microscint-20 was added directly to the cells and the amount of radioactivity taken up by the cells was estimated by scintillation counting.
(§2) pEC50 values indicating inhibition of monoamine uptake were calculated using standard curve fitting techniques.

[2] = target: T2, human noradrenaline transporter (hNET) (Homo sapiens, UniProt P23975); test: Assay of monoamine uptake: inhibition of noradrenaline uptake; conditions: MDCK cells expressing hNET; 20 nM [3H]-neurotransmitter mixture; 37° C.; read-out: hNET pEC50 (inhibition of noradrenaline uptake) (converted)
T2 construct: expressed in transfected cells
T2 sequence (P23975 whole entry): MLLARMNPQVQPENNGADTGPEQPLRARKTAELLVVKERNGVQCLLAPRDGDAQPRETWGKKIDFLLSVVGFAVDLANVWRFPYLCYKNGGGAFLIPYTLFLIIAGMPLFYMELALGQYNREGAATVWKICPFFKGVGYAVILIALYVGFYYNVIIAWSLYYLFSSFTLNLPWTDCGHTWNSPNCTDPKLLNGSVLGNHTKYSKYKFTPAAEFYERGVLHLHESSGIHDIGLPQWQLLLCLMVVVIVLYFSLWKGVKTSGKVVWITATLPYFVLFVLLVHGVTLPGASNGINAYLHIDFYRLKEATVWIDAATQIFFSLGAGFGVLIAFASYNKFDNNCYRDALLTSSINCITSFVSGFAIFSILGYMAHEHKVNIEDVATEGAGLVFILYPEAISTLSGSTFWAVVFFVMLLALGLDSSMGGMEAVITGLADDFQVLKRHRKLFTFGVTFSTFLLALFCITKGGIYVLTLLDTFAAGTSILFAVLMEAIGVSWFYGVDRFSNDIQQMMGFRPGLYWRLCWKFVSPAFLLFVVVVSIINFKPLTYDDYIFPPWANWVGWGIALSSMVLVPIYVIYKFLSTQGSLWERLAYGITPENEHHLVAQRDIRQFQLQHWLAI
Experimental: as §1, §2

[3] = target: T3, human serotonin transporter (hSERT) (Homo sapiens, UniProt P31645); test: Assay of monoamine uptake: inhibition of serotonin uptake; conditions: Chinese Hamster Ovary cells expressing hSERT; 20 nM [3H]-neurotransmitter mixture; ambient temperature; read-out: hSERT pEC50 (inhibition of serotonin uptake) (converted)
T3 construct: expressed in transfected cells
T3 sequence (P31645 whole entry): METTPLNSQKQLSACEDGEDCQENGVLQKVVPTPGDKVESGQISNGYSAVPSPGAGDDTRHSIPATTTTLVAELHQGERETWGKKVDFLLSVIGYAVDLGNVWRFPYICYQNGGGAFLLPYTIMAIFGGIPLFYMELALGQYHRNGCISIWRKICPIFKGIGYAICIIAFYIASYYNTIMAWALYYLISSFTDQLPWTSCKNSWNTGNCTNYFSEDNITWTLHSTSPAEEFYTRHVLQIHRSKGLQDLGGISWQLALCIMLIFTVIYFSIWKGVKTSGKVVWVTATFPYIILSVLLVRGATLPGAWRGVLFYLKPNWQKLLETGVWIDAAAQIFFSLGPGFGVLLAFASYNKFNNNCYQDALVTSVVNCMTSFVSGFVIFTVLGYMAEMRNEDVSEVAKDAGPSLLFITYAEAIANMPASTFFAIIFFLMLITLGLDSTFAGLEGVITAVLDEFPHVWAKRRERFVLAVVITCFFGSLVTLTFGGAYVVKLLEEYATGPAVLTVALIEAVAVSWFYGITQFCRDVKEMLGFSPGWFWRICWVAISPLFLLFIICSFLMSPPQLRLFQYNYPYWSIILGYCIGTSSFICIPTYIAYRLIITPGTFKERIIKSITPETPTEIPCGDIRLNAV
Experimental: as §1, §2

| SMILES | EC50 [1] | EC50 [2] | EC50 [3] |
| --- | --- | --- | --- |
| c1ccc(Oc2cccc(O[C@H]3C[C@H]4CC[C@@H](C3)N4)c2)cc1 [III.5, 3-endo-(3-Phenoxyphenoxy)-8-azabicyclo[3.2.1]octane] | < 100 nM | 100 to 1000 nM | > 1000 nM |
| COc1cc(Oc2ccccc2)cc(O[C@@H]2C[C@H]3CC[C@@H](C2)N3)c1F [IV.9, 3-exo-(2-Fluoro-3-methoxy-5-phenoxyphenoxy)-8-azabicyclo[3.2.1]octane] | < 100 nM | < 100 nM | > 1000 nM |
| FC(F)(F)c1ccc(O[C@@H]2C[C@H]3CC[C@@H](C2)N3)cc1-c1ccccc1 [VI.3, 3-exo-(6-Trifluoromethylbiphenyl-3-yloxy)-8-azabicyclo[3.2.1]octane] | > 1000 nM | > 1000 nM | 100 to 1000 nM |
| N#Cc1ccc(-c2cc(C#N)cc(O[C@@H]3C[C@H]4CC[C@@H](C3)N4)c2)cc1 [VI.8, exo 5-(8-Azabicyclo[3.2.1]oct-3-yloxy)-biphenyl-3,4′-dicarbonitrile] | > 1000 nM | > 1000 nM | < 100 nM |
| N#Cc1ccc(-c2cc(C#N)cc(O[C@@H]3C[C@H]4CC[C@@H](C3)N4)c2)nc1 [IX.3, exo 6-(3-(8-Azabicyclo[3.2.1]oct-3-yloxy)-5-cyanophenyl)nicotinonitrile] | > 1000 nM | > 1000 nM | < 100 nM |
| Clc1cc(Oc2ccccc2)cc(O[C@@H]2C[C@H]3CC[C@@H](C2)N3)c1 [IV.19, 3-exo-(3-Chloro-5-phenoxyphenoxy)-8-azabicyclo[3.2.1]octane] | < 100 nM | < 100 nM | > 1000 nM |
| FC(F)(F)c1ccccc1-c1cccc(O[C@@H]2C[C@H]3CC[C@@H](C2)N3)c1 [IV.8, 3-exo-(2′-Trifluoromethylbiphenyl-3-yloxy)-8-azabicyclo[3.2.1]octane] | > 1000 nM | < 100 nM | 100 to 1000 nM |
